These results are taken from article PMC11022890 (Drug Metabolism and Disposition, 2021).

For one experiment, the target named is T1, UGT1A9 (Homo sapiens, UniProt O60656).
T1 sequence (O60656 26-530): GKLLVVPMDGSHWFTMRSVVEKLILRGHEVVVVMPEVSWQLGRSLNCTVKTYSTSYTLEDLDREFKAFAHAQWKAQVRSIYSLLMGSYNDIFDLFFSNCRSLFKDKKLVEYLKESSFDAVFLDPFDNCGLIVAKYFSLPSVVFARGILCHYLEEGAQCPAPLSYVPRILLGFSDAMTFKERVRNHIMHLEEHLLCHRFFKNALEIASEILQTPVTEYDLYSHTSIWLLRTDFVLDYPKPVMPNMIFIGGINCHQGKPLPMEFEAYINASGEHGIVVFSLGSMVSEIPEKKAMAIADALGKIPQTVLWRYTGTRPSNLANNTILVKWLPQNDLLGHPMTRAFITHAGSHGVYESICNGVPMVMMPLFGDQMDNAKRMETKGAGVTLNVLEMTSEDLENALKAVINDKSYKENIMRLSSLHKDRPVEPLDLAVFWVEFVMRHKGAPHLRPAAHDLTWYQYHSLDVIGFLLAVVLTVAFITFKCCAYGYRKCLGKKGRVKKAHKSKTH
Description: Inhibition of furosemide glucuronidation in rUGT1A9 microsomes. The class given is in vitro ADME.

For the next experiment, the target named is T2, UGT1A4 (Homo sapiens, UniProt P22310).
T2 sequence (P22310 29-534): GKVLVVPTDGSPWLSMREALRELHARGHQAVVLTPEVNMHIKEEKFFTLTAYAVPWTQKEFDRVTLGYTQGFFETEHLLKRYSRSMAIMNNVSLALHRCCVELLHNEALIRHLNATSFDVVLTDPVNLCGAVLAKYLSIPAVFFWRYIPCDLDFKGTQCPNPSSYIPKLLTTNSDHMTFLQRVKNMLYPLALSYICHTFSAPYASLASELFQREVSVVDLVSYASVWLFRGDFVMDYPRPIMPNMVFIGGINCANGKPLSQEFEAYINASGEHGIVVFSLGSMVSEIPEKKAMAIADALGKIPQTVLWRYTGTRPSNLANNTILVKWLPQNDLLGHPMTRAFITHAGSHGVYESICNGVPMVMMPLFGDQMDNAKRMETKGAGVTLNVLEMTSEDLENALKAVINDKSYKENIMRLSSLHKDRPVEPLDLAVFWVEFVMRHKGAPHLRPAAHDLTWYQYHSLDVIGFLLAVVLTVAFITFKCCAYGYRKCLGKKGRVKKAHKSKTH
Put plainly: Screening: inhibition of trifluoperazine glucuronidation in rUGT1A4 microsomes. The class given is in vitro ADME. The conditions noted are these: 10 or 100 µM.

Experiment [1] has as its target T3, UGT1A9 in human kidney microsomes (Homo sapiens, UniProt O60656).
T3 sequence (O60656 26-530): T1 sequence (O60656 26-530)
Put plainly: Inhibition of propofol glucuronidation. The conditions noted are these: HKM.

The next experiment addresses T4, UGT1A3 (Homo sapiens, UniProt P35503).
T4 sequence (P35503 29-534): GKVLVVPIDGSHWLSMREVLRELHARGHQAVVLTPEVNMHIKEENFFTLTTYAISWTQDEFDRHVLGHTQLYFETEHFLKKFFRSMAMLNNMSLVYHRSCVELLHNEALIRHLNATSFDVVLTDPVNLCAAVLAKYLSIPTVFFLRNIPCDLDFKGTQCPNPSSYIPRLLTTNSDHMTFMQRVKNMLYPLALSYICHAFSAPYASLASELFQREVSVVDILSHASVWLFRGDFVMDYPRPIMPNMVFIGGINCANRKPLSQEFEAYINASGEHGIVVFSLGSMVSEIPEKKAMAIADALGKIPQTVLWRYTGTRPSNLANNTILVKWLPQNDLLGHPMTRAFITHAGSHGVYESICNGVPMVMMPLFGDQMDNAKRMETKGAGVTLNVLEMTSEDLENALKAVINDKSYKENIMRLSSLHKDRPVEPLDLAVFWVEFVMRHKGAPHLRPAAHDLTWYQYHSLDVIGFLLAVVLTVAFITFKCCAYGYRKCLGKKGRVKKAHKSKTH
The class given is in vitro ADME. The conditions noted are these: rUGT1A3 microsomes; 10 or 100 µM.

For the next experiment, the target named is T5, UGT2B17 (Homo sapiens, UniProt O75795).
T5 sequence (O75795 24-530): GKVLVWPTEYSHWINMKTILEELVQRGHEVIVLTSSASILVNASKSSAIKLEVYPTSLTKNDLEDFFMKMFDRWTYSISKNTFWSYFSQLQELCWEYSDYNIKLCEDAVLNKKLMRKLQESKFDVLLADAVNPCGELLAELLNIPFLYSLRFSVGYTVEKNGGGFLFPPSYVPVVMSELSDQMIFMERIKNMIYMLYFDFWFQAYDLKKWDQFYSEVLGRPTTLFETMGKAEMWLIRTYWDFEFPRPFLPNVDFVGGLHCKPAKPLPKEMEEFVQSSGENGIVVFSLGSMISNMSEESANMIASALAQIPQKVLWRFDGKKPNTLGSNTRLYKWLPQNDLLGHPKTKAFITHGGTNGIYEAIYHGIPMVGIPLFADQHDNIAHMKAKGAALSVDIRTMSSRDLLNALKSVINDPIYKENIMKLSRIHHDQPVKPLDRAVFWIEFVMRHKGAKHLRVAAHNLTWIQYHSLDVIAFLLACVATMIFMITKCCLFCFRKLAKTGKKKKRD
The experiment is classed as in vitro ADME. The settings on record: 100 µM; rUGT2B17 microsomes; dihydroexemestane; screening.

The target of another experiment is T6, UGT1A1 (Homo sapiens, UniProt P22309).
T6 sequence (P22309 26-533): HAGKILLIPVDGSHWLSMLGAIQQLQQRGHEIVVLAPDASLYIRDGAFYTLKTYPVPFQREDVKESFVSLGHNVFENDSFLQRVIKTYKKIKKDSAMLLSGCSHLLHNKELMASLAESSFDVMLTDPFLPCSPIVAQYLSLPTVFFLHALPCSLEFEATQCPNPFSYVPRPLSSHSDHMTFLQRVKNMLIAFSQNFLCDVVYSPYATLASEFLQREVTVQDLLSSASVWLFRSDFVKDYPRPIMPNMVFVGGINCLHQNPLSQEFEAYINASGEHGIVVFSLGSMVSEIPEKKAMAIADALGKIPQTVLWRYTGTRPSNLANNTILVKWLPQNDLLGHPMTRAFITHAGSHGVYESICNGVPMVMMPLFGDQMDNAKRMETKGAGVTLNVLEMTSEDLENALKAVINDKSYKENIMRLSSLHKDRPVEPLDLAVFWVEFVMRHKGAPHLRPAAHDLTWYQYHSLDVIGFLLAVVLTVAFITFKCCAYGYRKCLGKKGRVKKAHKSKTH
Put plainly: Screening: inhibition of β-estradiol glucuronidation in rUGT1A1 microsomes. The class given is in vitro ADME. The conditions noted are these: 10 or 100 µM.

The target in experiment [2] is T7, UGT1A9 in human liver microsomes (Homo sapiens, UniProt O60656).
T7 sequence (O60656 26-530): T1 sequence (O60656 26-530)
Put plainly: biochemical. The conditions noted are these: HLM.

[3] abbreviates: IC50, probe substrate furosemide.
Setting [4] is: IC50,u (binding-corrected IC50), probe substrate furosemide.
Where [5] appears, read: IC50,u (binding-corrected IC50), probe substrate propofol.

For `C=C(C)[C@@H]1CCC(C)=C[C@H]1c1c(O)cc(CCCCC)cc1O` [CBD, cannabidiol], the concentration for half-maximal inhibition (IC50) on UGT1A9 (setting [3]) was 2400 ± 660 nM; on UGT1A9 (setting [4]), 90 ± 25 nM; in experiment [1] (IC50, probe substrate propofol), 5500 ± 560 nM; in experiment [1] (setting [5]) it was 340 ± 35 nM; in experiment [2] (IC50, probe substrate propofol), 19000 ± 4600 nM; in experiment [2] (setting [5]), 1000 ± 240 nM. The “inhibition in screening (in words)” value at UGT1A4, against UGT1A3 and at UGT1A1 was “no significant inhibition” throughout. For the same molecule, the “inhibition vs control without cannabinoid” value at UGT2B17 is 43%.
For the molecule `CCCCCc1cc(O)c2c(c1)OC(C)(C)c1ccc(C)cc1-2` [CBN, cannabinol], the half-inhibitory concentration (IC50) at UGT1A9 (setting [3]) is 9200 ± 2100 nM; on UGT1A9 (setting [4]) it was 780 ± 180 nM; in experiment [1] (IC50, probe substrate propofol) it was 7500 ± 1700 nM; in experiment [1] (setting [5]), 900 ± 200 nM; in experiment [2] (IC50, probe substrate propofol), 31000 ± 4100 nM; in experiment [2] (setting [5]), 2900 ± 380 nM. The “inhibition in screening (in words)” value against UGT1A4, on UGT1A3 and on UGT1A1 was “no significant inhibition” each time. In addition, at UGT2B17, the “inhibition vs control without cannabinoid” value was 34%.
